We go through 23 molecules from ChEMBL document CHEMBL1152973, “Structure-activity relationship of etomidate derivatives at the GABA(A) receptor: Comparison with binding to 11beta-hydroxylase” (Bioorg Med Chem Lett, 2009).

Assay [1] is described as follows: Displacement of [3H]ethynylpropylbicycloorthobenzoate from GABAA receptor from rat cortical membrane by scintillation counting in presence of 1 uM GABA. On the technique in general: Displacement assays read how much labelled ligand stays bound in the presence of the test substance.
Assay [2] in a line: Displacement of [3H]ethynylpropylbicycloorthobenzoate from GABA receptor from rat cortical membrane by scintillation counting in absence of GABA.
The species named for assay [3] is Rattus norvegicus. Put plainly: Ratio of IC50 for rat cortical membrane GABA receptor in absence of GABA to IC50 for rat cortical membrane GABA receptor in presence of GABA.
For assay [4], the species on record is Rattus norvegicus. Put plainly: Displacement of [3H]ethynylpropylbicycloorthobenzoate from GABA receptor from rat cortical membrane at 100 uM by scintillation counting in presence of 1 uM GABA.
The species named for assay [5] is Rattus norvegicus. Put plainly: Displacement of [3H]ethynylpropylbicycloorthobenzoate from GABA receptor from rat cortical membrane at 100 uM by scintillation counting in absence of GABA.

Activity calls are given as the source filed them. The calls are words filed in the database; no cut-off is given here.

The term IC50 denotes the point on the concentration scale where inhibition reaches its midpoint. Consider `CCCOC(=O)c1cncn1[C@H](C)c1ccccc1`, for which the figures for the IC50 in assay [1] and in assay [2] were 1.29 µM and 15.4 µM, respectively. In the assay listed under Rattus norvegicus [3], the Ratio IC50 is 14.1.
The corresponding values for `CCOC(=O)c1cncn1[C@H](C)c1ccccc1` [ETOMIDATE] are 2.05 µM, 38 µM and 19.3.
For `C[C@H](c1ccccc1)n1cncc1C(N)=O`, the outcome in the assay filed under Rattus norvegicus [4] and in the assay listed under Rattus norvegicus [5] was inactive.
Consider `CC(C)(C(=O)c1cccnc1)c1cccnc1`, for which the outcome in the assay filed under Rattus norvegicus [4] and in the assay listed under Rattus norvegicus [5] was inactive.
Consider `COC(=O)c1cncn1[C@H](C)c1cccc(I)c1`, for which the IC50 was 53 µM in assay [1] and above 300 µM in assay [2].
The corresponding values for `COC(=O)c1cncn1[C@H](C)c1ccc(I)cc1` [IODOMETOMIDATE I-123, R-] are 37 µM and above 300 µM.
As for `COC(=O)c1cncn1[C@H](C)c1cccnc1`, the result in the assay filed under Rattus norvegicus [4] and in the assay listed under Rattus norvegicus [5] was inactive.
As to `CC(=O)c1cncn1[C@H](C)c1ccccc1`, the IC50 in assay [1] was 155 µM; in assay [2], above 300 µM.
As for `CC(C)OC(=O)c1cncn1[C@H](C)c1ccccc1`, the IC50 in assay [1] turned out to be 1.47 µM; in assay [2], 20.7 µM. Also, the Ratio IC50 in the assay listed under Rattus norvegicus [3] turned out to be 14.6.
Regarding `CC(C)(c1cccnc1)C(O)c1cccnc1` (stereo not given), the outcome in the assay listed under Rattus norvegicus [4] and in the assay filed under Rattus norvegicus [5] was inactive.
On to `COC(=O)c1cncn1[C@H](C)c1ccc(C)cc1`, for which the results for the IC50 in assay [1] and in assay [2] were 15.5 µM and above 300 µM, respectively.
Taken in the same sequence, the figures for `COC(=O)c1cncn1[C@@H]1CCc2ccccc21` were 122 µM and above 300 µM.
For `CC(=O)[C@H]1CC[C@H]2[C@@H]3CC[C@H]4C[C@H](O)CC[C@]4(C)[C@H]3CC[C@]12C` [BREXANOLONE], the IC50 in assay [1] was 0.14 µM; in assay [2] it was 6.2 µM. Further, in the assay filed under Rattus norvegicus [3], the Ratio IC50 was 50.
The corresponding values for `C[C@H](c1ccccc1)n1cncc1C(=O)OCCF` are 4.78 µM, 80 µM and 16.6.
The corresponding values for `COC(=O)c1cncn1[C@H](C)c1ccccc1` are 8.97 µM, 163 µM and 19.6.
Consider `CCOC(=O)c1cncn1[C@H](C)c1ccc(I)cc1`, for which the IC50 in assay [1] is 33 µM; in assay [2], above 300 µM.
On to `COC(=O)c1cncn1[C@H](C)c1ccc(Br)cc1`, for which the figures for the 50% inhibitory concentration (IC50) in assay [1] and in assay [2] were 7.62 µM and 109 µM, respectively. Also, the Ratio IC50 in the assay listed under Rattus norvegicus [3] was determined as 15.6.
The corresponding values for `CC(=O)[C@H]1CC[C@H]2[C@@H]3CC[C@H]4C[C@H](O)CC[C@]4(C)[C@H]3C(=O)C[C@]12C` [ALFAXALONE] are 0.9 µM, 86 µM and 102.
Consider `COC(=O)c1cncn1Cc1ccccc1`, for which the IC50 in assay [1] is 157 µM; in assay [2] it was above 300 µM.
Regarding `C[C@H](c1ccccc1)n1cncc1C(=O)O`, the result in the assay filed under Rattus norvegicus [4] and in the assay filed under Rattus norvegicus [5] was inactive.
As to `COC(=O)c1cncn1[C@@H](C)c1ccccc1`, the IC50 is 202 µM in assay [1] and above 300 µM in assay [2].
As to `CC[C@H](c1ccccc1)n1cncc1C(=O)OC`, the figures for the IC50 in assay [1] and in assay [2] were 7.15 µM and 111 µM, respectively. The Ratio IC50 in the assay filed under Rattus norvegicus [3] worked out at 15.8.
For `COC(=O)c1cncn1[C@H](C)c1ccc(CO)cc1`, the values for the IC50 in assay [1] and in assay [2] were 169 µM and above 300 µM, respectively.
